Measured values reported in ChEMBL document CHEMBL1145266, “Design, synthesis, and biological activity of potent and selective inhibitors of mast cell tryptase” (Bioorg Med Chem Lett, 2005).
pIC50, pKi: −log10 of the molar value.

What was measured:
[1] = target: T1, Tryptase beta-1 (Homo sapiens, UniProt Q15661); assay: In vitro inhibitory activity against tryptase
[2] = Bioavailability in rat using combiPK (dose of 2 mg/kg p.o.); type: ADME, organism-based; conditions: in vivo, po
[3] = Bioavailability using combiPK assay in rats at a dose of 1 mg/kg administered intravenously; type: ADME, organism-based; conditions: rat, in vivo, iv, read-out: Bioavailabiility
[4] = Bioavailability using combiPK assay in rats at a dose of 2 mg/kg administered orally; type: ADME, organism-based; conditions: rat, in vivo, po, read-out: Bioavailabiility
[5] = Bioavailability in rat using combiPK (dose 1 mg/kg i.v.); type: ADME, organism-based; conditions: in vivo, iv
[6] = Bioavailability in rat (combiPK assay) (dose 2 mg/kg p.o.); type: ADME, organism-based; conditions: in vivo, po
[7] = Bioavailability in rat using combiPK assay (dose 1 mg/kg i.v.); type: ADME, organism-based; conditions: in vivo, iv
[8] = Inhibitory concentration against Trypsin was determined
[9] = Inhibitory concentration against Chymase was determined
[10] = Inhibitory concentration against Thrombin was determined
[11] = Inhibitory concentration against Factor Xa was determined
[12] = target: T1, Tryptase beta-1; assay: Inhibition concentration against beta tryptase was determined
[13] = target: T1, Tryptase beta-1; assay: Inhibitory concentration against alpha tryptase was determined

T1 sequence (Q15661 whole entry): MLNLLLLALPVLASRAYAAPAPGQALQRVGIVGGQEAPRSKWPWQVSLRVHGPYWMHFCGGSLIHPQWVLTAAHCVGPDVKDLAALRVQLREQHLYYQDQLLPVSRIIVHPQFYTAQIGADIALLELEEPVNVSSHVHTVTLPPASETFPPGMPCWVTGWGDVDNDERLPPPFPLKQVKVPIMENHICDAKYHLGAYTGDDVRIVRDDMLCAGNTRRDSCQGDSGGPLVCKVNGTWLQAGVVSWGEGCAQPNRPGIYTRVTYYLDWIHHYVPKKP

CCCCCCn1cc(C(=O)N2CCC(c3cccc(CN)c3)CC2)c2ccccc21
pKi [1]: 6.90

Cc1cccc2c(C(=O)N3CCC(c4cccc(CN)c4)CC3)c[nH]c12.O=C(O)C(F)(F)F
pKi [1]: 7.21
bioavailability [2]: 19%
bioavailability [3]: 19%

Cn1cc(C(=O)N2CCC(c3cccc(CN)c3)CC2)c2ccccc21
pKi [1]: 6.81

NCc1cccc(C2CCN(C(=O)c3cn(C(=O)c4cccs4)c4ccccc34)CC2)c1
pKi [1]: 6.61

NCc1cccc(C2CCN(C(=O)c3cn(CC4CC4)c4ccccc34)CC2)c1
pKi [1]: 6.85

NCc1cccc(C2CCN(C(=O)c3c[nH]c4ccccc34)CC2)c1.O=C(O)C(F)(F)F
pKi [1]: 6.54
bioavailability [4]: 22%
bioavailability [5]: 22%

CCCn1cc(C(=O)N2CCC(c3cccc(CN)c3)CC2)c2cccc(C)c21
pKi [1]: 7.39

NCc1cccc(C2CCN(C(=O)c3cn(-c4cccnc4)c4ccccc34)CC2)c1
pKi [1]: 6.71

CCn1cc(C(=O)N2CCC(c3cccc(CN)c3)CC2)c2ccccc21.O=C(O)C(F)(F)F
pKi [1]: 6.91
bioavailability [6]: 11%
bioavailability [7]: 11%

CC(=O)n1cc(C(=O)N2CCC(c3cccc(CN)c3)CC2)c2ccccc21
pKi [1]: 6.62

NCc1cccc(C2CCN(C(=O)c3cn(S(=O)(=O)c4ccccc4)c4ccccc34)CC2)c1.O=C(O)C(F)(F)F
pKi [1]: 6.89
bioavailability [2]: 17%
bioavailability [5]: 17%

CC(C)n1cc(C(=O)N2CCC(c3cccc(CN)c3)CC2)c2ccccc21
pKi [1]: 6.51

CCCn1cc(C(=O)N2CCC(c3cccc(CN)c3)CC2)c2ccccc21
pKi [1]: 6.73

Cc1ccc2[nH]cc(C(=O)N3CCC(c4cccc(CN)c4)CC3)c2c1
pKi [1]: 7.00

CCCCn1cc(C(=O)N2CCC(c3cccc(CN)c3)CC2)c2ccccc21.O=C(O)C(F)(F)F
pKi [1]: 7.31
bioavailability [6]: 9.3%
bioavailability [7]: 9.3%

Cc1cccc2[nH]cc(C(=O)N3CCC(c4cccc(CN)c4)CC3)c12
pKi [1]: < 5.70

NCc1cccc(C2CCN(C(=O)c3cn(-c4nccs4)c4ccccc34)CC2)c1
pKi [1]: 6.43

CC(C)Cn1cc(C(=O)N2CCC(c3cccc(CN)c3)CC2)c2ccccc21
pKi [1]: 6.94

CS(=O)(=O)n1cc(C(=O)N2CCC(c3cccc(CN)c3)CC2)c2ccccc21
pKi [1]: 6.79

Cc1ccc2c(C(=O)N3CCC(c4cccc(CN)c4)CC3)c[nH]c2c1
pKi [1]: < 5.70

CCn1cc(C(=O)N2CCC(c3cccc(CN)c3)CC2)c2cccc(C)c21.O=C(O)C(F)(F)F
pKi [1]: 7.39
bioavailability [6]: 26%
bioavailability [7]: 26%

NCc1cccc(C2CCN(C(=O)c3cn(CC4CCCCC4)c4ccccc34)CC2)c1
pKi [1]: 6.30

NCc1cccc(C2CCN(C(=O)c3c[nH]c4c(F)cccc34)CC2)c1
pKi [1]: 6.43

CCCCn1cc(C(=O)N2CCC(c3cccc(CN)c3)CC2)c2cccc(C)c21.O=C(O)C(F)(F)F
pIC50 [8]: < 5.00
pIC50 [9]: < 5.00
pIC50 [10]: < 5.00
pIC50 [11]: < 5.00
pIC50 [12]: 7.17
pIC50 [13]: 5.43
pKi [1]: 7.17
bioavailability [7]: 33%

COCCn1cc(C(=O)N2CCC(c3cccc(CN)c3)CC2)c2ccccc21
pKi [1]: 7.24

COCCn1cc(C(=O)N2CCC(c3cccc(CN)c3)CC2)c2cccc(C)c21
pKi [1]: 7.49
